Legend:
[1] = system: P. putida pBBR1-rppA strain; test: RppA malonyl-CoA biosensor characterization with cerulenin in P. putida; assay type: cell-based, Pseudomonas putida; details: MR-MOPS medium, increasing cerulenin concentration
[2] = system: E. coli BL21(DE3) strain containing the plasmid pTac-5′UTR-Sgr_rppA; test: RppA malonyl-CoA biosensor characterization with cerulenin in E. coli; assay type: cell-based
Protocol: After construction of a malonyl-CoA biosensor based on S. griseus RppA, the following experiment was performed in order to examine the applicability of the biosensor. First, the signal of the RppA malonyl-CoA biosensor was defined as the absorbance of culture supernatant at 340 nm (FIG. 3D). Generally, for characterizing a biosensor, different concentrations of a target compound has to be added to examine whether an increased signal occur. However, because malonyl-CoA is a substance that cannot pass through the cell membrane, adding malonyl-CoA to medium is meaningless. Thus, cerulenin (Sigma-aldrich, USA) known to block fatty acid biosynthetic pathways was used to indirectly characterize the biosensor (Omura S (1976), Bacteriol Rev 40:681-697.). Cerulenin blocks fatty acid biosynthetic pathways, and thus leads to the accumulation of malonyl-CoA, a fatty acid precursor. Thus, the concentration of malonyl-CoA in E. coli according to addition of different concentrations of cerulenin as described in previous studies was measured (Xu P, Li L, Zhang F, Stephanopoulos G, Koffas M (2014), Proc Natl Acad Sci USA 111:11299-11304). […] The inoculated cells were cultured in an incubator at 30° C. and 220 rpm for 16 hours, and then the growth (OD600) of the cells and the absorbance at 340 nm of the culture supernatant were measured. […]

[3] = system: C. glutamicum pCES-His-rppA strain; test: RppA malonyl-CoA biosensor characterization with cerulenin in C. glutamicum; assay type: cell-based, Corynebacterium glutamicum; details: increasing cerulenin concentration
[4] = system: E. coli BL21(DE3) strains expressing AaOKS, AaPKS4 and AaPKS5; test: AaOKS, AaPKS4 and AaPKS5 malonyl-CoA biosensor experiments using cerulenin; assay type: cell-based; details: different concentrations of cerulenin added to the medium

C/C=C/C/C=C/CCC(=O)[C@H]1O[C@H]1C(N)=O [cerulenin]
normalized production of flaviolin [1]: increased as the cerulenin concentration in the corresponding strain increased | normalized signal [1]: increased as the cerulenin concentration in the corresponding strain increased | normalized signal (absorbance of culture supernatant at 340 nm) ([2]; cerulenin 0, 5, 10, 15, 20, 25, 50, and 100 μM, 16 hours, 30° C., compared to the strain that does not express RppA): obviously increased as the concentration of cerulenin increased | normalized production of flaviolin ([2]; increasing cerulenin concentration, also observed by the naked eyes): increased with increasing cerulenin concentration | normalized production of flaviolin [3]: increased as the cerulenin concentration in the corresponding strain increased | normalized signal [3]: increased as the cerulenin concentration in the corresponding strain increased | signal (absorbance at 300 nm of the culture supernatant) [4]: signal generated from each strain increased as the intracellular malonyl-CoA concentration increased

Source: US20210277428A1, “NOVEL MALONYL-COA BIOSENSOR BASED ON TYPE III […] AND USE THEREOF” (KOREA ADVANCED INSTITUTE OF SCIENCE AND TECHNOLOGY, priority 2018, published 2021)
